Measured values: publication PMC5218480 (PLoS ONE, 2017)

System: MV-4-11 cells
Test: Gene expression microarray analysis (Affymetrix PrimeView) and GSEA
Format: cell-based, human
Parameters: RFU PODN (11730768_x_at) / Fold change /veh PODN (11730768_x_at) / RFU LINC00158 (11744669_a_at) / Fold change /veh LINC00158 (11744669_a_at) / RFU DUSP10 (11751237_a_at) / Fold change /veh DUSP10 (11751237_a_at) / RFU ID3 (11757404_x_at) / Fold change /veh ID3 (11757404_x_at) / RFU PLEKHG5 (11737974_s_at) / Fold change /veh PLEKHG5 (11737974_s_at) / RFU LRRC4B (11730491_at) / Fold change /veh LRRC4B (11730491_at) / RFU GIMAP4 (11747438_a_at) / Fold change /veh GIMAP4 (11747438_a_at) / RFU KRT8 (11758183_x_at) / Fold change /veh KRT8 (11758183_x_at) / RFU CNN1 (11734310_a_at) / Fold change /veh CNN1 (11734310_a_at) / RFU VPS37D (11726825_at) / Fold change /veh VPS37D (11726825_at) / RFU C10orf10 (11716522_x_at) / Fold change /veh C10orf10 (11716522_x_at) / RFU KIR2DL2 /// KIR2DL4 /// KIR2DL5A /// KIR2DL5B /// KIR2DS1 /// KIR2DS2 /// KIR2DS3 /// KIR2DS4 /// KIR3DL3 /// KIR3DL3 /// KIR3DS1 (11738374_at) / Fold change /veh KIR2DL2 /// KIR2DL4 /// KIR2DL5A /// KIR2DL5B /// KIR2DS1 /// KIR2DS2 /// KIR2DS3 /// KIR2DS4 /// KIR3DL3 /// KIR3DL3 /// KIR3DS1 (11738374_at) / RFU C1QL1 (11718748_at) / Fold change /veh C1QL1 (11718748_at) / RFU TMPRSS4 (11747572_a_at) / Fold change /veh TMPRSS4 (11747572_a_at) / RFU HAMP (11756126_x_at) / Fold change /veh HAMP (11756126_x_at) / RFU RNFT2 (11725882_a_at) / Fold change /veh RNFT2 (11725882_a_at) / RFU NR4A2 (11747474_a_at) / Fold change /veh NR4A2 (11747474_a_at) / RFU ABCC12 (11746883_a_at) / Fold change /veh ABCC12 (11746883_a_at) / RFU TMEM136 (11760407_x_at) / Fold change /veh TMEM136 (11760407_x_at) / RFU CLDN22 /// WWC2 (11732394_at) / Fold change /veh CLDN22 /// WWC2 (11732394_at) / RFU HLA-DPB1 (11760878_x_at) / Fold change /veh HLA-DPB1 (11760878_x_at) / RFU SPINT1 (11716480_a_at) / Fold change /veh SPINT1 (11716480_a_at) / RFU GAP43 (11754022_s_at) / Fold change /veh GAP43 (11754022_s_at) / RFU A4GNT (11735810_at) / Fold change /veh A4GNT (11735810_at) / RFU PRB3 (11715151_x_at) / Fold change /veh PRB3 (11715151_x_at) / RFU TUBB4B (11761932_at) / Fold change /veh TUBB4B (11761932_at) / RFU CAPN14 (11732068_a_at) / Fold change /veh CAPN14 (11732068_a_at) / RFU TMCC2 (11721928_a_at) / Fold change /veh TMCC2 (11721928_a_at) / RFU IRGQ (11745062_a_at) / Fold change /veh IRGQ (11745062_a_at) / RFU FAM174B (11720279_a_at) / Fold change /veh FAM174B (11720279_a_at) / RFU TMPRSS4 (11748680_a_at) / Fold change /veh TMPRSS4 (11748680_a_at) / RFU FAM212B (11763350_a_at) / Fold change /veh FAM212B (11763350_a_at) / RFU PLEKHG5 (11743358_a_at) / Fold change /veh PLEKHG5 (11743358_a_at) / RFU ZSCAN30 (11745921_a_at) / Fold change /veh ZSCAN30 (11745921_a_at) / RFU CMKLR1 (11741424_a_at) / Fold change /veh CMKLR1 (11741424_a_at) / RFU LOC101060620 /// MAPK8IP1 (11723275_at) / Fold change /veh LOC101060620 /// MAPK8IP1 (11723275_at) / RFU SPTSSB (11747773_x_at) / Fold change /veh SPTSSB (11747773_x_at) / RFU PRSS12 (11739890_at) / Fold change /veh PRSS12 (11739890_at) / RFU BIN1 (11741810_x_at) / Fold change /veh BIN1 (11741810_x_at) / RFU WNT11 (11732464_a_at) / Fold change /veh WNT11 (11732464_a_at) / RFU C10orf10 (11716521_a_at) / Fold change /veh C10orf10 (11716521_a_at) / RFU C5orf56 (11738089_at) / Fold change /veh C5orf56 (11738089_at) / RFU CYB561 (11721691_x_at) / Fold change /veh CYB561 (11721691_x_at) / RFU ANKRD19P (11752326_a_at) / Fold change /veh ANKRD19P (11752326_a_at) / RFU OR2T12 /// OR2T33 /// OR2T8 (11738714_s_at) / Fold change /veh OR2T12 /// OR2T33 /// OR2T8 (11738714_s_at) / RFU VCAN (11748164_a_at) / Fold change /veh VCAN (11748164_a_at) / RFU JSRP1 (11732532_at) / Fold change /veh JSRP1 (11732532_at) / RFU KRTAP10-11 (11738290_x_at) / Fold change /veh KRTAP10-11 (11738290_x_at) / RFU MYO3A (11730013_a_at) / Fold change /veh MYO3A (11730013_a_at) / RFU EBF3 (11725865_a_at) / Fold change /veh EBF3 (11725865_a_at) / RFU CAMK2N1 (11719241_x_at) / Fold change /veh CAMK2N1 (11719241_x_at) / RFU C5orf56 (11738088_a_at) / Fold change /veh C5orf56 (11738088_a_at) / RFU OLFML3 (11715873_a_at) / Fold change /veh OLFML3 (11715873_a_at) / RFU LOC100653217 /// NTM (11731650_a_at) / Fold change /veh LOC100653217 /// NTM (11731650_a_at) / RFU MAPK11 (11762145_a_at) / Fold change /veh MAPK11 (11762145_a_at) / RFU FIZ1 (11724087_x_at) / Fold change /veh FIZ1 (11724087_x_at) / RFU OASL (11726364_x_at) / Fold change /veh OASL (11726364_x_at) / RFU SOX15 (11748057_x_at) / Fold change /veh SOX15 (11748057_x_at) / RFU CD79A (11719716_a_at) / Fold change /veh CD79A (11719716_a_at) / RFU HIST1H1D (11736915_at) / Fold change /veh HIST1H1D (11736915_at) / RFU CASKIN2 (11723855_a_at) / Fold change /veh CASKIN2 (11723855_a_at) / RFU LOC730098 (11760151_x_at) / Fold change /veh LOC730098 (11760151_x_at) / RFU OR4N2 (11742367_at) / Fold change /veh OR4N2 (11742367_at) / RFU PRRT2 (11749266_a_at) / Fold change /veh PRRT2 (11749266_a_at) / RFU SNX32 (11753110_a_at) / Fold change /veh SNX32 (11753110_a_at) / RFU CDHR5 (11726645_a_at) / Fold change /veh CDHR5 (11726645_a_at) / RFU RCAN1 (11760418_a_at) / Fold change /veh RCAN1 (11760418_a_at) / RFU FAM167A (11723789_a_at) / Fold change /veh FAM167A (11723789_a_at) / RFU FAM26E (11764081_at) / Fold change /veh FAM26E (11764081_at) / RFU ISYNA1 (11749810_s_at) / Fold change /veh ISYNA1 (11749810_s_at) / RFU ACY1 (11761880_at) / Fold change /veh ACY1 (11761880_at) / RFU 11764098_at / Fold change /veh 11764098_at / RFU SAMD14 (11745864_x_at) / Fold change /veh SAMD14 (11745864_x_at) / RFU NPB (11741838_a_at) / Fold change /veh NPB (11741838_a_at) / RFU TMPRSS6 (11731388_a_at) / Fold change /veh TMPRSS6 (11731388_a_at) / RFU KRTAP10-2 (11738614_at) / Fold change /veh KRTAP10-2 (11738614_at) / RFU ARHGAP8 /// PRR5-ARHGAP8 (11727945_x_at) / Fold change /veh ARHGAP8 /// PRR5-ARHGAP8 (11727945_x_at) / RFU KRTAP5-7 /// NADSYN1 (11734609_at) / Fold change /veh KRTAP5-7 /// NADSYN1 (11734609_at) / RFU RASL12 (11751679_a_at) / Fold change /veh RASL12 (11751679_a_at) / RFU CDKN2B (11736163_a_at) / Fold change /veh CDKN2B (11736163_a_at) / RFU PRF1 (11729649_at) / Fold change /veh PRF1 (11729649_at) / RFU, ZNF638 /// ZNF638-IT1 / Fold change vs veh, ZNF638 /// ZNF638-IT1 / RFU, PANK3 / Fold change vs veh, PANK3 / RFU, SH3YL1 / Fold change vs veh, SH3YL1 / RFU, ZEB2 / Fold change vs veh, ZEB2 / RFU, NRIP1 / Fold change vs veh, NRIP1 / RFU, PTTG1IP / Fold change vs veh, PTTG1IP / RFU, CAPN2 / Fold change vs veh, CAPN2 / RFU, MED14 / Fold change vs veh, MED14 / RFU, SNORA58 / Fold change vs veh, SNORA58 / RFU, C1orf63 / Fold change vs veh, C1orf63 / RFU, LRRFIP1 / Fold change vs veh, LRRFIP1 / RFU, NDUFAF7 / Fold change vs veh, NDUFAF7 / RFU, SLC12A2 / Fold change vs veh, SLC12A2 / RFU, IBTK / Fold change vs veh, IBTK / RFU, ESF1 / Fold change vs veh, ESF1 / Fold change vs veh, TMEM50B / RFU, TAOK1 / Fold change vs veh, TAOK1 / RFU, ACBD3 / Fold change vs veh, ACBD3 / RFU, TMA16 / Fold change vs veh, TMA16 / RFU, RWDD3 / Fold change vs veh, RWDD3 / RFU, BCAT1 / Fold change vs veh, BCAT1 / RFU, EDEM3 / Fold change vs veh, EDEM3 / RFU, TMEM33 / Fold change vs veh, TMEM33 / RFU, WDR75 / Fold change vs veh, WDR75 / RFU, AHCTF1 / Fold change vs veh, AHCTF1 / RFU, TFRC / Fold change vs veh, TFRC / RFU, ZDHHC17 / Fold change vs veh, ZDHHC17 / RFU, NOM1 / Fold change vs veh, NOM1 / RFU, ARL8B / Fold change vs veh, ARL8B / RFU, ZBTB11 / Fold change vs veh, ZBTB11 / RFU, TAMM41 / Fold change vs veh, TAMM41 / RFU, KIAA1704 /// LOC100996395 / Fold change vs veh, KIAA1704 /// LOC100996395 / RFU, ING1 / Fold change vs veh, ING1 / RFU, TRMT61B / Fold change vs veh, TRMT61B / RFU, FUBP3 / Fold change vs veh, FUBP3 / RFU, TP53 / Fold change vs veh, TP53 / RFU, TNKS2 / Fold change vs veh, TNKS2 / RFU, ZFP14 / Fold change vs veh, ZFP14 / RFU, ACTR2 / Fold change vs veh, ACTR2 / RFU, PPP3R1 / Fold change vs veh, PPP3R1 / RFU, PIK3R1 / Fold change vs veh, PIK3R1 / RFU, HNRNPA1 / Fold change vs veh, HNRNPA1 / RFU, RNF170 / Fold change vs veh, RNF170 / RFU, ZNF28 / Fold change vs veh, ZNF28 / RFU, RNGTT / Fold change vs veh, RNGTT / RFU, OGT / Fold change vs veh, OGT / RFU, BRD1 / Fold change vs veh, BRD1 / RFU, MARS / Fold change vs veh, MARS / RFU, ZNF655 / Fold change vs veh, ZNF655 / RFU, FAHD1 / Fold change vs veh, FAHD1 / RFU, BDP1 / Fold change vs veh, BDP1 / RFU, LRRCC1 / Fold change vs veh, LRRCC1 / RFU, ARID1A / Fold change vs veh, ARID1A / RFU, ZNF146 / Fold change vs veh, ZNF146 / RFU, ZNF330 / Fold change vs veh, ZNF330 / RFU, GPN3 / Fold change vs veh, GPN3 / RFU, C9orf123 / Fold change vs veh, C9orf123 / RFU, N4BP2L2 / Fold change vs veh, N4BP2L2 / RFU, ARFIP1 / Fold change vs veh, ARFIP1 / RFU, FAM179B / Fold change vs veh, FAM179B / RFU, BCL10 / Fold change vs veh, BCL10 / RFU, UHRF1BP1L / Fold change vs veh, UHRF1BP1L / RFU, BET1 / Fold change vs veh, BET1 / RFU, CNOT2 / Fold change vs veh, CNOT2 / RFU, ZNF268 / Fold change vs veh, ZNF268 / Fold change vs veh, ZNF507 / RFU, DGCR2 / Fold change vs veh, DGCR2 / RFU, WDSUB1 / Fold change vs veh, WDSUB1 / Fold change vs veh, HSP90B1 /// MIR3652 / RFU, ADSS / Fold change vs veh, ADSS / RFU, GK / Fold change vs veh, GK / RFU, ZNF148 / Fold change vs veh, ZNF148 / RFU, TAF9 / Fold change vs veh, TAF9 / RFU, SLC1A5 / Fold change vs veh, SLC1A5 / RFU, SLMO2 / Fold change vs veh, SLMO2 / RFU, ABCC4 / Fold change vs veh, ABCC4 / RFU, LOC101060439 /// RAP1B / Fold change vs veh, LOC101060439 /// RAP1B / RFU, RFX7 / Fold change vs veh, RFX7 / RFU, GTPBP10 / Fold change vs veh, GTPBP10 / RFU, CNEP1R1 / Fold change vs veh, CNEP1R1 / RFU, BIVM-ERCC5 /// ERCC5 / Fold change vs veh, BIVM-ERCC5 /// ERCC5 / RFU, ILF3 / Fold change vs veh, ILF3 / RFU 11762660_at / Fold change /veh 11762660_at / RFU VCAN (11757783_s_at) / Fold change /veh VCAN (11757783_s_at) / RFU DDX43 (11728927_at) / Fold change /veh DDX43 (11728927_at) / RFU KRT8 (11758188_x_at) / Fold change /veh KRT8 (11758188_x_at) / RFU NKD1 (11759106_at) / Fold change /veh NKD1 (11759106_at) / RFU SRD5A1 (11742802_a_at) / Fold change /veh SRD5A1 (11742802_a_at) / RFU TPSAB1 /// TPSB2 (11721975_s_at) / Fold change /veh TPSAB1 /// TPSB2 (11721975_s_at) / RFU GSTM3 (11746129_a_at) / Fold change /veh GSTM3 (11746129_a_at) / RFU IL23R (11737362_x_at) / Fold change /veh IL23R (11737362_x_at) / RFU TMEM51 (11727254_a_at) / Fold change /veh TMEM51 (11727254_a_at) / RFU PIWIL2 (11732686_x_at) / Fold change /veh PIWIL2 (11732686_x_at) / RFU ORM1 (11744905_x_at) / Fold change /veh ORM1 (11744905_x_at) / RFU CCDC152 (11743942_at) / Fold change /veh CCDC152 (11743942_at) / RFU ECM1 (11717891_a_at) / Fold change /veh ECM1 (11717891_a_at) / RFU IL23R (11748794_a_at) / Fold change /veh IL23R (11748794_a_at) / RFU TNFAIP8L3 (11732012_x_at) / Fold change /veh TNFAIP8L3 (11732012_x_at) / RFU MBOAT4 (11741988_at) / Fold change /veh MBOAT4 (11741988_at) / RFU 11764193_at / Fold change /veh 11764193_at / RFU TMEM53 (11763286_at) / Fold change /veh TMEM53 (11763286_at) / RFU MAGEB2 (11727129_at) / Fold change /veh MAGEB2 (11727129_at) / RFU TMEM200A (11744735_a_at) / Fold change /veh TMEM200A (11744735_a_at) / RFU CCDC152 (11751479_a_at) / Fold change /veh CCDC152 (11751479_a_at) / RFU FAM211A (11726209_a_at) / Fold change /veh FAM211A (11726209_a_at) / RFU RGS16 (11746705_a_at) / Fold change /veh RGS16 (11746705_a_at) / RFU VCAN (11755009_s_at) / Fold change /veh VCAN (11755009_s_at) / RFU RHOB (11743442_s_at) / Fold change /veh RHOB (11743442_s_at) / RFU RGS16 (11720943_a_at) / Fold change /veh RGS16 (11720943_a_at) / RFU RGS16 (11720944_at) / Fold change /veh RGS16 (11720944_at) / RFU, VPS4B / Fold change vs veh, VPS4B / RFU, CREB1 / Fold change vs veh, CREB1 / RFU, DNAJC13 / Fold change vs veh, DNAJC13 / RFU, GNAQ / Fold change vs veh, GNAQ / RFU, CDK5R1 / Fold change vs veh, CDK5R1 / RFU, ZRANB3 / Fold change vs veh, ZRANB3 / RFU, CUL4A / Fold change vs veh, CUL4A / RFU, CCNY / Fold change vs veh, CCNY / RFU, UFL1 / Fold change vs veh, UFL1 / RFU, COG3 / Fold change vs veh, COG3 / RFU, DIAPH2 / Fold change vs veh, DIAPH2 / RFU, SKA2 / Fold change vs veh, SKA2 / RFU, AFF3 / Fold change vs veh, AFF3 / RFU, LMF1 / Fold change vs veh, LMF1 / RFU, IPO11 / Fold change vs veh, IPO11 / RFU, DFFB / Fold change vs veh, DFFB / RFU, FOXP1 / Fold change vs veh, FOXP1 / RFU, CARD8 / Fold change vs veh, CARD8 / RFU, STRN3 / Fold change vs veh, STRN3 / RFU, ADK / Fold change vs veh, ADK / RFU, RASSF2 / Fold change vs veh, RASSF2 / RFU, WIPF1 / Fold change vs veh, WIPF1 / RFU, LARP1B / Fold change vs veh, LARP1B / RFU, RASA1 / Fold change vs veh, RASA1 / RFU, RB1 / Fold change vs veh, RB1 / RFU, PPFIA1 / Fold change vs veh, PPFIA1 / RFU, MAT2A / Fold change vs veh, MAT2A / RFU, CCT5 / Fold change vs veh, CCT5 / RFU, WDR92 / Fold change vs veh, WDR92 / RFU, CUX1 / Fold change vs veh, CUX1 / RFU, TTC7A / Fold change vs veh, TTC7A / RFU, TMEM135 / Fold change vs veh, TMEM135 / RFU, DEPTOR / Fold change vs veh, DEPTOR / RFU, CPM / Fold change vs veh, CPM / RFU, DNAJB6 / Fold change vs veh, DNAJB6 / RFU, CACNA2D3 / Fold change vs veh, CACNA2D3 / RFU, DTX4 / Fold change vs veh, DTX4 / RFU, TFCP2 / Fold change vs veh, TFCP2 / RFU, GMCL1 /// GMCL1P1 / Fold change vs veh, GMCL1 /// GMCL1P1 / RFU, AEBP2 / Fold change vs veh, AEBP2 / RFU, SNHG1 /// SNORD22 /// SNORD25 /// SNORD26 /// SNORD27 /// SNORD28 /// SNORD29 /// SNORD31 / Fold change vs veh, SNHG1 /// SNORD22 /// SNORD25 /// SNORD26 /// SNORD27 /// SNORD28 /// SNORD29 /// SNORD31 / Fold change (Aza/veh), C12orf56 (ProbeSet 11735607_a_at) / Fold change (ACY-1035/veh), C12orf56 (ProbeSet 11735607_a_at) / Fold change (Aza/veh), FGFR1OP (ProbeSet 11751329_s_at) / Fold change (ACY-1035/veh), FGFR1OP (ProbeSet 11751329_s_at) / Fold change (Aza/veh), VPS36 (ProbeSet 11739960_a_at) / Fold change (ACY-1035/veh), VPS36 (ProbeSet 11739960_a_at) / RFU SYPL1 (11715823_x_at) / Fold change /veh SYPL1 (11715823_x_at) / RFU IGFBP7 (11715501_s_at) / Fold change /veh IGFBP7 (11715501_s_at) / RFU REEP3 (11722064_at) / Fold change /veh REEP3 (11722064_at) / RFU IGLL1 (11728026_x_at) / Fold change /veh IGLL1 (11728026_x_at): dose or concentration left out as unconfirmed
Conditions: MV-4-11 cells, 48 hours

SMILES: Nc1ccc(-c2cccs2)cc1NC(=O)c1ccc2c(c1)cc(C1CC1)n2CCN1CCOCC1 [ACY-1035]
- Fold change /veh VCAN (11748164_a_at): 1.07
